PMC12843137, “Fine-Tuning Side Chain Substitutions: Impacts on the Lipophilicity–Solubility–Permeability Interplay in Macrocyclic Peptides” (Marine Drugs, 2025)
Read-outs that look alike come from different tables or passages of the source.

Columns and labels:
[1] = Caco-2 cell permeability study; format: in vitro ADME; settings: human; for efflux ratio at 2 h, 5 µM: Caco-2, pH 7.4; for recovery at 2 h, 5 μM: Caco-2, pH 7.4, Caco-2, 5 μM; for Papp A→B at 2 h, 5 µM / Papp B→A at 2 h, 5 µM: pH 7.4, Caco-2, 5 μM; for Papp A→B at 2 h, 5 µM: apical to basolateral; for Papp B→A at 2 h, 5 µM: basolateral to apical
Text: One of the physicochemical quantities that mirrors the interaction of a compound with the cell membrane is permeability. Traditionally, measuring permeability with the PAMPA model provides estimates of passive permeability across a model membrane. […] Therefore, we measure the cell permeability of the six compounds using Caco-2 cells, so that the apical to basolateral (A to B) and basolateral to apical (B to A) permeabilities, and thereby the efflux ratio, can be determined. Three commercial drugs (Table 2) are used as standard compounds to establish and validate our in-house assay.
For Caco-2 cells (originally obtained from the American Type Culture Collection; ATCC, Manassas, VA, USA), 50 μL and […] of cell culture medium are added to each well of the Transwell insert and reservoir, respectively. And then the HTS transwell plates are incubated at 37 °C, 5% CO2 for 1 h before cell seeding. Caco-2 cells are diluted to 6.86 × 10^5 cells/mL with culture medium and 50 μL of cell suspension is dispensed into the filter well of the 96-well HTS Transwell plate. Cells are cultivated for 14–18 days in a cell culture incubator at 37 °C, 5% CO2, 95% relative humidity. Cell culture medium is replaced every other day, beginning no later than 24 h after initial plating. Stock solutions of the test compounds are prepared at a concentration of 10 mM in DMSO. […] Detailed assay procedures are provided in the SI. […]
dilution factor is changed according to the log D value and the LC-MS signal response. The samples are evaluated by LC-MS/MS analysis. All experiments are performed in duplicates.
5. Caco-2 Cell Permeability Assay
The Caco-2 plate is removed from the incubator and washed twice with pre-warmed HBSS (10 mM HEPES, pH 7.4), and then incubated at 37 °C for 30 minutes. The stock solutions of control compounds and test compounds are diluted in DMSO to get 1 mM solutions and then diluted with HBSS (10 mM HEPES, pH 7.4) get 5 μM working solutions. The final concentration of DMSO in the incubation system is 0.5%. To determine the rate of drug transport in the apical to basolateral direction. 125 μL of 5 μM working solution of control compounds and test compounds are added to the Transwell insert (apical compartment), and transfer 50 μL sample (D0 sample) immediately from the apical compartment to a new 96-well plate. Fill the wells in the receiver plate (basolateral compartment) with 235 μL of HBSS (10 mM HEPES, pH 7.4). To determine the rate of drug transport in the basolateral to apical direction. 285 μL of 5 μM working solution of control compounds and test compounds are to the receiver plate wells (basolateral compartment), and transfer 50 μL sample (D0 sample) immediately from the basolateral compartment to a new 96-well plate.
Fill the wells in the Transwell insert (apical compartment) with 75 μL of HBSS (10 mM HEPES, pH 7.4).
The assay is performed in duplicate. The plates are incubated at 37 °C for 2 h. At the end of the incubation, 50 μL samples from donor sides (apical compartment for Ap→Bl flux, and basolateral compartment for Bl→Ap) and receiver sides (basolateral compartment for Ap→Bl flux, and apical compartment for Bl→Ap) are transferred to wells of a new 96-well plate, followed by the addition of 4 volume of cold acetonitrile containing appropriate internal standards (IS). Samples are Vortexed for 5 minutes and then centrifuged at 3,220 g for 30 minutes. An aliquot of 100 µL of the supernatant is mixed with an appropriate volume of ultra-pure water before LC-MS/MS analysis (see SI Bioanalytical Method for Caco-2 Cell Permeability […]
Papp (A to B) is greater than the Papp (A to B) of minoxidil it is assigned as high permeability. If the Papp (A to B) is […]

PANC-1 cells = assay: CCK-8 antiproliferative assay, PANC-1; format: cell-based; settings: Homo sapiens, CCK-8, 72 h, mean of three independent experiments
Protocol: The inhibitory activities against human pancreatic cancer PANC-1 cells of the synthesized compounds were evaluated by CCK-8 assay.
Human pancreatic cancer cell lines PANC-1, PATU8988T and BxPC3 were purchased from the Cancer Institute & Hospital of the Chinese Academy of Medical Sciences (Shanghai, China). All three cell lines were cultured in RPMI-DMEM medium containing 10% fetal bovine serum, cultured at a constant temperature of 37 °C in a humidified incubator with 5% CO2.
Pancreatic cancer cells are seeded into 96-well plates. After a proliferation time of 16 h, different concentrations of compounds are added into the corresponding wells and incubated for 72 h. 10 μL of CCK-8 solution is added into each well and incubated for 1–4 h at 37 °C. Shake the plates and read the OD value of each well at 450 nm on a microplate reader.

[2] = read-out: Mean % Solution Recovery A to B
[3] = read-out: Mean % Solution Recovery B to A

Row | SMILES | efflux ratio at 2 h, 5 µM [1] | recovery at 2 h, 5 μM [1, 2] [%] | recovery at 2 h, 5 μM [1, 3] [%] | Papp A→B at 2 h, 5 µM [1] [×10⁻⁶ cm/s] | Papp B→A at 2 h, 5 µM [1] [×10⁻⁶ cm/s] | IC50 (PANC-1 cells) [µM]
1 | CCCCCCCCCCCCCC1OC(=O)CN(C)C(=O)C=CC(CN2CCN(C)CC2)NC(=O)CNC(=O)C(C)(O)C(=O)C1C (stereo not shown) [BE-NMP] | > 65.3 | < 23.5 | 8.99 | < 0.0144 | 0.942 | 
2 | CCCCOc1ccc(-c2ccc(-c3ccc(Cn4cc(CCCCC[C@H]5OC(=O)CN(C)C(=O)/C=C/[C@@H](CN6CCN(C)CC6)NC(=O)CNC(=O)[C@@](C)(O)C(=O)[C@H]5C)nn4)cc3)cc2)cc1 [Compound 29] |  | < 92.9 | < 71.1 | < 0.00798 | < 0.00266 | > 100
3 | CC1C(=O)C(C)(O)C(=O)NCC(=O)NC(CN2CCN(C)CC2)C=CC(=O)N(C)CC(=O)OC1CCCCc1cn(CCCCCCCCNC(=N)N)nn1 (stereo not shown) [Compound 31] | 2.57 | 109 | 70.4 | 0.0348 | 0.0894 | > 100
4 | C[C@@H]1C(=O)[C@](C)(O)C(=O)NCC(=O)N[C@H](CN2CCN(C)CC2)/C=C/C(=O)N(C)CC(=O)O[C@H]1CCCCCc1cn(CCCCCCCNc2cccc3c2CN(C2CCC(=O)NC2=O)C3=O)nn1 (stereo partly shown) [Compound 40] | > 10.8 | < 89.4 | 50.4 | < 0.0116 | 0.13 | > 100
